Measurements published in PubChem BioAssay (NCI).
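Compound exposure: 48 hours, 5 concentrations, 96-well plates. GI50 is the concentration that inhibits growth by half. TGI is the concentration that stops growth completely.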

How the values were obtained:
Test in all cases: inhibition of tumour cell growth, NCI panel, 48 h
[1] = test system: 786-0 renal
[2] = test system: A498 renal
[3] = test system: A549 NSCLC
[4] = test system: ACHN renal
[5] = test system: BT-549 breast
[6] = test system: CAKI-1 renal
[7] = test system: CCRF-CEM leukemia
[8] = test system: COLO 205 colon
[9] = test system: DU-145 prostate
[10] = test system: EKVX NSCLC
[11] = test system: HCC-2998 colon
[12] = test system: HCT-116 colon
[13] = test system: HCT-15 colon
[14] = test system: HL-60(TB) leukemia
[15] = test system: HOP-62 NSCLC
[16] = test system: HOP-92 NSCLC
[17] = test system: HS 578T breast
[18] = test system: HT29 colon
[19] = test system: IGROV1 ovarian
[20] = test system: K-562 leukemia
[21] = test system: KM12 colon
[22] = test system: LOX IMVI melanoma
[23] = test system: M14 melanoma
[24] = test system: MALME-3M melanoma
[25] = test system: MCF7 breast
[26] = test system: MDA-MB-231 breast
[27] = test system: MDA-MB-435
[28] = test system: MOLT-4 leukemia
[29] = test system: NCI-H226 lung
[30] = test system: NCI-H23 lung
[31] = test system: NCI-H460 lung
[32] = test system: NCI-H522 lung
[33] = test system: NCI/ADR-RES ovarian
[34] = test system: OVCAR-3 ovarian
[35] = test system: OVCAR-4 ovarian
[36] = test system: OVCAR-5 ovarian
[37] = test system: OVCAR-8 ovarian
[38] = test system: PC-3 prostate
[39] = test system: RPMI-8226 leukemia
[40] = test system: RXF 393 renal
[41] = test system: SF-268 CNS
[42] = test system: SF-295 CNS
[43] = test system: SF-539 CNS
[44] = test system: SK-MEL-2 melanoma
[45] = test system: SK-MEL-28 melanoma
[46] = test system: SK-MEL-5 melanoma
[47] = test system: SK-OV-3 ovarian
[48] = test system: SN12C renal
[49] = test system: SNB-19 CNS
[50] = test system: SNB-75 CNS
[51] = test system: SR leukemia
[52] = test system: SW-620 colon
[53] = test system: T-47D breast
[54] = test system: TK-10 renal
[55] = test system: U251 CNS
[56] = test system: UACC-257 melanoma
[57] = test system: UACC-62 melanoma
[58] = test system: UO-31 renal

`Nc1nccc(-c2c(-c3ccc(F)cc3)ncn2CCCN2CCOCC2)n1` was tested, and the GI50 [1] was > 25 µM, the TGI [1] was > 25 µM and the GI50 [2] was > 19.2 µM. For the same molecule, the TGI [2] was > 25 µM, the GI50 [3] was > 25 µM and the TGI [3] was > 25 µM. For the same molecule, the GI50 [4] was 19.4 µM, the TGI [4] was > 25 µM and the GI50 [5] was > 25 µM. For the same molecule, the TGI [5] was > 25 µM, the GI50 [6] was > 25 µM and the TGI [6] was > 25 µM. For the same molecule, the GI50 [7] was > 25 µM, the TGI [7] was > 25 µM and the GI50 [8] was > 25 µM. For the same molecule, the TGI [8] was > 25 µM, the GI50 [9] was > 25 µM and the TGI [9] was > 25 µM. The GI50 [10] was > 25 µM, the TGI [10] was > 25 µM and the GI50 [11] was > 25 µM. For the same molecule, the TGI [11] was > 25 µM, the GI50 [12] was > 25 µM and the TGI [12] was > 25 µM. For the same molecule, the GI50 [13] was > 25 µM, the TGI [13] was > 25 µM and the GI50 [14] was > 25 µM. The TGI [14] was > 25 µM, the GI50 [15] was > 25 µM and the TGI [15] was > 25 µM. The GI50 [16] was > 21.7 µM, the TGI [16] was > 25 µM and the GI50 [17] was > 25 µM. For the same molecule, the TGI [17] was > 25 µM, the GI50 [18] was > 25 µM and the TGI [18] was > 25 µM. The GI50 [19] was > 25 µM, the TGI [19] was > 25 µM and the GI50 [20] was > 25 µM. The TGI [20] was > 25 µM, the GI50 [21] was > 25 µM and the TGI [21] was > 25 µM. The GI50 [22] was > 25 µM, the TGI [22] was > 25 µM and the GI50 [23] was > 25 µM. For the same molecule, the TGI [23] was > 25 µM, the GI50 [24] was > 25 µM and the TGI [24] was > 25 µM. The GI50 [25] was > 21.6 µM, the TGI [25] was > 25 µM and the GI50 [26] was > 25 µM. The TGI [26] was > 25 µM, the GI50 [27] was > 25 µM and the TGI [27] was > 25 µM. For the same molecule, the GI50 [28] was > 25 µM, the TGI [28] was > 25 µM and the GI50 [29] was > 25 µM. For the same molecule, the TGI [29] was > 25 µM, the GI50 [30] was > 25 µM and the TGI [30] was > 25 µM. For the same molecule, the GI50 [31] was > 25 µM, the TGI [31] was > 25 µM and the GI50 [32] was > 25 µM. For the same molecule, the TGI [32] was > 25 µM, the GI50 [33] was > 25 µM and the TGI [33] was > 25 µM. For the same molecule, the GI50 [34] was > 25 µM, the TGI [34] was > 25 µM and the GI50 [35] was > 25 µM. For the same molecule, the TGI [35] was > 25 µM, the GI50 [36] was > 25 µM and the TGI [36] was > 25 µM. For the same molecule, the GI50 [37] was > 25 µM, the TGI [37] was > 25 µM and the GI50 [38] was > 25 µM. The TGI [38] was > 25 µM, the GI50 [39] was > 25 µM and the TGI [39] was > 25 µM. The GI50 [40] was > 17 µM, the TGI [40] was > 25 µM and the GI50 [41] was > 25 µM. The TGI [41] was > 25 µM, the GI50 [42] was > 25 µM and the TGI [42] was > 25 µM. The GI50 [43] was > 25 µM, the TGI [43] was > 25 µM and the GI50 [44] was > 25 µM. For the same molecule, the TGI [44] was > 25 µM, the GI50 [45] was > 25 µM and the TGI [45] was > 25 µM. The GI50 [46] was > 25 µM, the TGI [46] was > 25 µM and the GI50 [47] was > 25 µM. For the same molecule, the TGI [47] was > 25 µM, the GI50 [48] was > 25 µM and the TGI [48] was > 25 µM. The GI50 [49] was > 25 µM, the TGI [49] was > 25 µM and the GI50 [50] was > 25 µM. For the same molecule, the TGI [50] was > 25 µM, the GI50 [51] was > 25 µM and the TGI [51] was > 25 µM. The GI50 [52] was > 25 µM, the TGI [52] was > 25 µM and the GI50 [53] was > 25 µM. The TGI [53] was > 25 µM, the GI50 [54] was > 25 µM and the TGI [54] was > 25 µM. For the same molecule, the GI50 [55] was > 25 µM, the TGI [55] was > 25 µM and the GI50 [56] was > 25 µM. The TGI [56] was > 25 µM, the GI50 [57] was > 25 µM and the TGI [57] was > 25 µM. The GI50 [58] was 11.6 µM and the TGI [58] was > 25 µM.
